Some test systems named below: UO-31 renal; SK-MEL-28 melanoma; NCI-H23 lung; DLD-1 colon; EKVX NSCLC; HOP-62 NSCLC; LXFL 529 NSCLC; BT-549 breast; T-47D breast; PC-3 prostate.
What all share (test): NCI-60 cell line screen, 48 h

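48-hour exposure; five concentrations; linearly interpolated endpoints. The concentration for 50% growth inhibition is given as GI50. TGI marks complete inhibition of growth.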

For the compound `O=c1c2cccc3cccc(c4oc5c6cccc7cccc(c(=O)c5c14)c76)c32`, the TGI was 23.1 µM in the assay with UO-31 renal; 17.7 µM in the assay on SK-MEL-28 melanoma; 20.1 µM in the assay with NCI-H23 lung; 30.2 µM with DLD-1 colon; 23.3 µM in the assay with EKVX NSCLC; above 100 µM in the assay with HOP-62 NSCLC. In addition, the TGI in the assay with LXFL 529 NSCLC was found to be 15.8 µM.

Turning to `Nc1ccn(CCO)c(=O)n1`, the TGI in the assay with UO-31 renal, in the assay on SK-MEL-28 melanoma, in the assay with DLD-1 colon, with EKVX NSCLC, in the assay with HOP-62 NSCLC and with LXFL 529 NSCLC was above 100 µM throughout.

Take `O=C(/C=C/c1ccc(Cl)c(Cl)c1)c1ccc(F)cc1`: the TGI was above 100 µM with UO-31 renal; 39.5 µM with SK-MEL-28 melanoma; 83.2 µM in the assay on NCI-H23 lung; 27.8 µM in the assay with DLD-1 colon; 55.3 µM in the assay with EKVX NSCLC; above 100 µM in the assay with HOP-62 NSCLC. The TGI in the assay with LXFL 529 NSCLC was 27.7 µM.

Take `O=C1/C(=C/c2ccc3c(c2)OCO3)CCC1CN1CCOCC1` (centres undefined): the TGI with UO-31 renal is 29.2 µM; in the assay with BT-549 breast it was 42.1 µM; in the assay on SK-MEL-28 melanoma it was 10.4 µM; in the assay with NCI-H23 lung, 25.1 µM; with DLD-1 colon, 6.31 µM; in the assay on T-47D breast it was 42.3 µM. In addition, the TGI in the assay on EKVX NSCLC is 34.7 µM; in the assay with PC-3 prostate it was 4.49 µM; in the assay on HOP-62 NSCLC, 25.6 µM; in the assay with LXFL 529 NSCLC it was 7.68 µM.

For the compound `NC1=C(Br)C(=O)c2ncccc2C1=O`, the TGI was determined as 1.07 µM in the assay on UO-31 renal; 2.57 µM in the assay on BT-549 breast; 1.25 µM with SK-MEL-28 melanoma; 0.668 µM with NCI-H23 lung; 1.98 µM in the assay with DLD-1 colon; 4.1 µM in the assay on T-47D breast. Besides, the TGI is 3.02 µM in the assay with EKVX NSCLC, 9.64 µM in the assay on PC-3 prostate, 1.67 µM in the assay with HOP-62 NSCLC and 0.8 µM in the assay with LXFL 529 NSCLC. Further, the GI50 with BT-549 breast is 1.16 µM; with T-47D breast it was 1.69 µM; with PC-3 prostate it was 1.65 µM.

Consider `N#C/C(=C1\NN=C(N)C(c2ccc(Cl)cc2)=C1O)c1ccc(Cl)cc1`, for which the TGI with UO-31 renal, in the assay with SK-MEL-28 melanoma, in the assay on NCI-H23 lung, in the assay with DLD-1 colon, in the assay with EKVX NSCLC and in the assay on HOP-62 NSCLC was above 100 µM in each case. Further, the TGI with LXFL 529 NSCLC was above 100 µM.

As to `C=C1C(=O)OC2C1CC[C@H](C)C13OC(=O)CC1[C@@]23C` (some centres undefined), the TGI in the assay with UO-31 renal, in the assay with SK-MEL-28 melanoma, with NCI-H23 lung, in the assay on DLD-1 colon, with EKVX NSCLC and with LXFL 529 NSCLC was above 100 µM in each case.

As to `CCOC(=O)C1=C(NNC(=O)Cc2ccccc2)CSC1=Nc1ccccc1`, the TGI in the assay with UO-31 renal, in the assay with SK-MEL-28 melanoma, in the assay with NCI-H23 lung, with DLD-1 colon, in the assay on EKVX NSCLC and with HOP-62 NSCLC was above 100 µM in each case. Also, in the assay with LXFL 529 NSCLC, the TGI is above 100 µM.

On to `CCCCCCCCC(=O)N(C)C1C2CN3CCC(O2)C13` (centres undefined), for which the TGI in the assay with UO-31 renal, with SK-MEL-28 melanoma, in the assay on NCI-H23 lung, in the assay on DLD-1 colon, with EKVX NSCLC and in the assay on HOP-62 NSCLC was above 100 µM throughout. The TGI in the assay on LXFL 529 NSCLC is above 100 µM.

For `O=c1c(Sc2c(O)c3ccccc3c3ccccc3c2=O)c(O)c2ccccc2c2ccccc12`, the TGI was above 100 µM with UO-31 renal; above 100 µM with SK-MEL-28 melanoma; 94.7 µM with NCI-H23 lung; above 100 µM in the assay with DLD-1 colon; above 100 µM in the assay with EKVX NSCLC; 86.4 µM in the assay with HOP-62 NSCLC. The compound further returned a TGI with LXFL 529 NSCLC above 100 µM.

For `[C-]#[O+].[C-]#[O+].[C-]#[O+].[C-]#[O+].[Ir].[Ir].[O-]c1ccc2ccccc2c1C=Nc1ccc(N=Cc2c([O-])ccc3ccccc23)cc1`, the GI50 in the assay with UO-31 renal, in the assay on NCI-H23 lung, in the assay on DLD-1 colon, in the assay with EKVX NSCLC, in the assay on HOP-62 NSCLC and with LXFL 529 NSCLC was above 100 µM each time. Also, the TGI in the assay on UO-31 renal, with NCI-H23 lung, with DLD-1 colon, in the assay on EKVX NSCLC, with HOP-62 NSCLC and in the assay on LXFL 529 NSCLC was above 100 µM throughout.

Consider `OCC(O)C(OC1OC(CO)C(O)C(O)C1O)c1nn(-c2ccccc2)c2nc3cc(Cl)c(Cl)cc3cc12` (centres undefined), for which the TGI in the assay on UO-31 renal, with SK-MEL-28 melanoma, in the assay on NCI-H23 lung, in the assay on DLD-1 colon, in the assay with EKVX NSCLC and in the assay on HOP-62 NSCLC was above 100 µM each time. The same compound yielded a TGI in the assay with LXFL 529 NSCLC above 100 µM.

`Cc1cc(C)c2c(c1)Nc1ccccc1P2c1ccccc1` (centres undefined): the TGI is 57.8 µM in the assay with UO-31 renal; above 100 µM in the assay on SK-MEL-28 melanoma; 83.8 µM with NCI-H23 lung; 65.7 µM with DLD-1 colon; 91.1 µM in the assay with EKVX NSCLC; 66.8 µM in the assay on HOP-62 NSCLC. For the same compound, the TGI in the assay on LXFL 529 NSCLC was above 100 µM.

As for `O=C1OC(CC(=O)c2ccc(Cl)cc2Cl)C(Cl)=C1Cl` (centres undefined), the TGI with UO-31 renal was above 56.7 µM; in the assay on SK-MEL-28 melanoma, 37.2 µM; with NCI-H23 lung it was above 65.7 µM; in the assay on DLD-1 colon, 54.5 µM; with EKVX NSCLC, above 76.9 µM; with HOP-62 NSCLC, above 100 µM. In the assay on LXFL 529 NSCLC, this compound yielded a TGI of 32.1 µM.

In the case of `C=C(C)C(=O)OC1CC2=CC(CC3(C)OC3C3OC(=O)C(=C)C13)OC2=O` (centres undefined), the TGI is 26.2 µM in the assay on UO-31 renal; 25 µM in the assay on BT-549 breast; 26.2 µM with SK-MEL-28 melanoma; 30.9 µM in the assay with NCI-H23 lung; 5.17 µM with DLD-1 colon; 22.6 µM in the assay on T-47D breast. For the same compound, the TGI with EKVX NSCLC turned out to be 30.9 µM; with PC-3 prostate, 28.1 µM; with HOP-62 NSCLC, 41.9 µM; in the assay with LXFL 529 NSCLC it was 5.94 µM.

Consider `CS(=O)(=O)OCCn1cnc2nc(NC(=O)c3ccccc3)[nH]c(=O)c21`, for which the TGI with UO-31 renal, in the assay with SK-MEL-28 melanoma, in the assay with DLD-1 colon, in the assay with EKVX NSCLC, in the assay with HOP-62 NSCLC and in the assay with LXFL 529 NSCLC was above 100 µM each time.

As to `O=C1C=C[C@@]23C[C@@H](Nc4c(O)c5c6c(c42)=NCCC=6C=N5)SC3=C1`, the TGI with UO-31 renal is 22.8 µM; in the assay with SK-MEL-28 melanoma it was 20.1 µM; in the assay on NCI-H23 lung it was 7.01 µM; with DLD-1 colon it was 3.22 µM; in the assay with T-47D breast it was 7.47 µM; in the assay on EKVX NSCLC, 20.2 µM. Moreover, the TGI amounted to 7.61 µM in the assay on PC-3 prostate and 3.24 µM with LXFL 529 NSCLC. Besides, the GI50 was 7.48 µM with SK-MEL-28 melanoma; 2.52 µM in the assay with NCI-H23 lung; 1.74 µM with DLD-1 colon; 2.96 µM in the assay on T-47D breast; 7.74 µM in the assay on EKVX NSCLC; 2.42 µM in the assay with PC-3 prostate.

In the case of `CC(=O)Nc1ccc(/C=N\N2C(=O)c3ccccc3C2=O)cc1`, the TGI in the assay on UO-31 renal, in the assay on SK-MEL-28 melanoma, with NCI-H23 lung, with DLD-1 colon, in the assay with EKVX NSCLC and in the assay with HOP-62 NSCLC was above 100 µM throughout. In the assay on LXFL 529 NSCLC, this compound returned a TGI above 100 µM.

For `CN(C)CCNC(=O)c1ccc(C(=O)NCCN(C)C)c2nc3ccccc3cc12`, the TGI in the assay on UO-31 renal amounted to 18 µM; in the assay on SK-MEL-28 melanoma, 3.89 µM; with NCI-H23 lung, 3.8 µM; in the assay on DLD-1 colon it was 5.28 µM; in the assay with EKVX NSCLC, 6.89 µM; with HOP-62 NSCLC, 4.45 µM. In the assay with LXFL 529 NSCLC, this compound had a TGI of 12.3 µM.

Turning to `Fc1cccc2cc3ccc4cccc5ccc(c12)c3c45`, the TGI in the assay with UO-31 renal, in the assay with SK-MEL-28 melanoma, in the assay with NCI-H23 lung, in the assay with DLD-1 colon, in the assay with EKVX NSCLC and in the assay on HOP-62 NSCLC was above 100 µM throughout. Moreover, the TGI in the assay with LXFL 529 NSCLC was above 100 µM.

For `C/C([O-])=C1\Cc2ccccc2C1=O.C/C([O-])=C1\Cc2ccccc2C1=O.CC[O-].CC[O-].[Ti+4]`, the GI50 in the assay on UO-31 renal was 20.2 µM; in the assay with SK-MEL-28 melanoma, 17.7 µM; with NCI-H23 lung, 20.2 µM; in the assay with DLD-1 colon, 18.7 µM; in the assay on T-47D breast, 15.5 µM; in the assay on EKVX NSCLC, 29.6 µM. For the same compound, the values for the GI50 with PC-3 prostate, in the assay with HOP-62 NSCLC and with LXFL 529 NSCLC were 22 µM, 13 µM and 12.3 µM, respectively. The TGI in the assay on UO-31 renal was 70.6 µM; with SK-MEL-28 melanoma, 38.1 µM; with NCI-H23 lung it was 62.2 µM; in the assay on DLD-1 colon it was above 100 µM; with T-47D breast it was 92.4 µM; with EKVX NSCLC, above 100 µM. Further, the figures for the TGI with PC-3 prostate, in the assay on HOP-62 NSCLC and in the assay with LXFL 529 NSCLC were 71.7 µM, 50.3 µM and 35.5 µM, respectively.

For `Nc1ncnc2c1ncn2CC(O)C(=O)O` (centres undefined), the TGI in the assay on UO-31 renal, in the assay with BT-549 breast, with SK-MEL-28 melanoma, in the assay on NCI-H23 lung, in the assay on DLD-1 colon and in the assay on T-47D breast was above 100 µM in each case. Besides, the TGI with EKVX NSCLC, in the assay on PC-3 prostate, in the assay on HOP-62 NSCLC and in the assay on LXFL 529 NSCLC was above 100 µM throughout.

For the origin of these results see PubChem BioAssay (NCI).
